Laboratory results as given in patent US20210122739A1, “NOVEL SULFONAMIDE CARBOXAMIDE COMPOUNDS” (Inflazome Limited, priority 2017, published 2021).

Assays:
[1] = PK protocol: pharmacokinetic parameters in male Sprague Dawley rats; assay type: in vivo; settings: plasma, rat; for Vd: read-out: Vdss
Experimental: Pharmacokinetic parameters were determined in male Sprague Dawley rats (Charles River, UK, 250-350 g; or Vital River Laboratory Animal Technology Co Ltd, Beijing, China, 7-9 weeks old). Animals were individually housed during the study and maintained under a 12 h light/dark cycle. Animals had free access to food and water except that some orally dosed animals were food deprived overnight prior to the study.
For intravenous administration, compounds were formulated as a solution in water or DMSO:PBS [10:90] in 2 mL/kg dosing volume and administered via tail vein. For oral administration, compounds were formulated as a solution in water or DMSO:water [10:90] in 5 mL/kg dosing volume and administered orally.
Serial blood samples (about 120-300 μL) were taken from each animal at each of 8 time-points post dose (0.083, 0.25, 0.5, 1, 2, 4, 8 and 24 h) or at each of 12 time-points post dose (0.03, 0.1, 0.17, 0.25, 0.5, 1, 2, 4, 6, 8, 12 and 24 h) or pre-dose and at each of 9 time-points post dose (0.25, 0.5, 1, 2, 4, 6, 8, 12 and 24 h). Samples were held on ice for no longer than 30 minutes before centrifugation (10,000 rpm (8,385 g) for 3 minutes; or 5,696 rpm (3,000 g) for 15 minutes) for plasma generation. Plasma was frozen on dry ice prior to bioanalysis. PK parameters were generated from LC-MS/MS data using Dotmatics or Phoenix WinNonlin 6.3 software.

NLRP3 [2] = target: T1, NLRP3 (Homo sapiens, UniProt Q96P20); assay: THP-1 cells pyroptosis assay; assay type: cell-based; set-up: Seed THP-1 cells (25,000 cells/well) containing 1.0 μg/ml LPS; host or cells: THP-1 cells, LPS-primed, nigericin-stimulated; settings: 1.0 μg/ml LPS, nigericin 5 μM, resazurin readout
How it was run: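 THP-1 cells (25,000/well, serum-free RPMI) primed with 1 μg/ml LPS were given compound (8-point half-log series, top 10 μM; 0.1% DMSO) for 3 h at 37 °C, then 5 μM nigericin for 1 h. Viability read by 100 μM resazurin fluorescence (Ex 560/Em 590) after 1–2 h; IC50 from four-parameter nonlinear regression.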

NLRP3 [3] = target: T1, NLRP3; assay: Human whole blood IL1β release assay; assay type: cell-based; set-up: Plate out 80 μl of whole blood containing 1 μg/ml of LPS; from tissue; host or cells: human whole blood from healthy donors, LPS-primed, nigericin-stimulated; settings: 1 μg/ml LPS, nigericin 10 μM, IL-1β by AlphaLisa, read-out: HWB IC50
Experimental: For systemic delivery, the ability to inhibit NLRP3 when the compounds are present within the bloodstream is of great importance. For this reason, the NLRP3 inhibitory activity of a number of compounds in human whole blood was investigated in accordance with the following protocol.
Human whole blood in Li-heparin tubes was obtained from healthy donors from a volunteer donor panel. • 1. Plate out 80 μl of whole blood containing 1 μg/ml of LPS in 96-well, clear bottom cell culture plate (Corning #3585) • 2. Add 10 μl compound (8 points half-log dilution with 10 μM top dose) or vehicle (DMSO 0.1% FAC) to the appropriate wells • 3. Incubate for 3 hrs at 37° C., 5% CO2 • 4. Add 10 μl Nigericin (Sigma #N7143) (10 μM FAC) to all wells • 5. Incubate for 1 hr at 37° C., 5% CO2 • 6. At the end of the incubation period, spin plates at 300×g for 5 mins to pellet cells and remove 20 μl of supernatant and add to 96-well v-bottom plates for IL-1β analysis (note: these plates containing the supernatants can be stored at −80° C. to be analysed at a later date) • 7. IL-1β was measured according to the manufacturer protocol (Perkin Elmer-AlphaLisa IL-1 Kit AL220F-5000) • 8. IC50 data is fitted to anon-linear regression equation (log inhibitor vs response-variable slope 4-parameters)

[4] = oral administration, dose per compound in Dose column (3 or 5 mg/kg)
[5] = intravenous administration, dose per compound in Dose column (0.83-5.05 mg/kg)

T1 sequence (Q96P20 whole entry): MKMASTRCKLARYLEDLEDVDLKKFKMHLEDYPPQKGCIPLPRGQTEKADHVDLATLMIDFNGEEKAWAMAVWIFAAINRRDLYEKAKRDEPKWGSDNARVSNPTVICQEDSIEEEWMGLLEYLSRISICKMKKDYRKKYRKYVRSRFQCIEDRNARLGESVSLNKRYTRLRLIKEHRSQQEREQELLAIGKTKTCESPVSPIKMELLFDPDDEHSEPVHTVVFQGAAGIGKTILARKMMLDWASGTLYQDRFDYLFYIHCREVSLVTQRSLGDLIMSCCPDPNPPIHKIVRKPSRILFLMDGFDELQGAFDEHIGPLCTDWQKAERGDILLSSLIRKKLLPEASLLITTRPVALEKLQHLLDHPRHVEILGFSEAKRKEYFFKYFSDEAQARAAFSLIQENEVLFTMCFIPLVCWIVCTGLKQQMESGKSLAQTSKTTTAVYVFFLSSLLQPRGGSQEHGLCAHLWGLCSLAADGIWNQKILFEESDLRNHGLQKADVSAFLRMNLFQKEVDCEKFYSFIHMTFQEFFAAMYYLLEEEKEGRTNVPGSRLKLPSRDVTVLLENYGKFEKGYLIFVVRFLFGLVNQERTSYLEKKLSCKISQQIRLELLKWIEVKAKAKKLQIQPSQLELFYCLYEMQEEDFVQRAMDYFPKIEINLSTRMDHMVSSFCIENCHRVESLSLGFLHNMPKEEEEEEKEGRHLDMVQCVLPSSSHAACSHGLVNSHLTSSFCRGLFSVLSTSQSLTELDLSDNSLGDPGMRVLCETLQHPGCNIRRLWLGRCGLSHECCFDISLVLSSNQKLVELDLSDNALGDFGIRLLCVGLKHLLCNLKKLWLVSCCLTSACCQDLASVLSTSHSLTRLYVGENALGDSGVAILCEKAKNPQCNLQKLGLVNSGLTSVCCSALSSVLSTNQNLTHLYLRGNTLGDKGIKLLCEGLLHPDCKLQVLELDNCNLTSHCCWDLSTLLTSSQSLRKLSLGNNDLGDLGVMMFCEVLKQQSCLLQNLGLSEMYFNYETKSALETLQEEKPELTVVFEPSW

Structure (SMILES) | IC50 (NLRP3 [2]) [nM] | IC50 (NLRP3 [3]) [nM] | also measured
CC(C)n1nc(S(=O)(=O)NC(=O)Nc2c3c(cc4c2CCC4)CCC3)cc1C(=O)N1CCC1 [Example 31, 5-(Azetidine-1-carbonyl)-N-((1,2,3,5,6,7-hexahydro-s-indacen-4-yl)carbamoyl)-1-isopropyl-1H-pyrazole-3-sulfonamide] | 40 to 160 | 800 to 1600 | AUC [1, 5]: 303 ng·h/mL; clearance [1, 5]: 55.3 mL/min/kg; half-life [1, 5]: 1.6 h; Vd [1, 5]: 1.66 L/kg
CC(C)c1cc(F)cc(C(C)C)c1NC(=O)NS(=O)(=O)c1cc(C(=O)N2CCC2)n(C)n1 [Example 45, 5-(Azetidine-1-carbonyl)-N-((4-fluoro-2,6-diisopropylphenyl)carbamoyl)-1-methyl-1H-pyrazole-3-sulfonamide] | 40 to 160 | < 400 | AUC [1, 5]: 415 ng·h/mL; clearance [1, 5]: 40.3 mL/min/kg; half-life [1, 5]: 6.4 h; Vd [1, 5]: 7.96 L/kg
CN(C(=O)c1cc(S(=O)(=O)NC(=O)Nc2c3c(cc4c2CCC4)CCC3)nn1C)C1CC1 [Example 52, N-Cyclopropyl-3-(N-((1,2,3,5,6,7-hexahydro-s-indacen-4-yl)carbamoyl)sulfamoyl)-N,1-dimethyl-1H-pyrazole-5-carboxamide] | 40 to 160 | 400 to 800 | 
Cn1nc(S(=O)(=O)NC(=O)Nc2c3c(cc4c2CCC4)CCC3)cc1C(=O)N1CCC1 [Example 54, 5-(Azetidine-1-carbonyl)-N-((1,2,3,5,6,7-hexahydro-s-indacen-4-yl)carbamoyl)-1-methyl-1H-pyrazole-3-sulfonamide] | 40 to 160 | 1600 to 3200 | 
CNC(=O)c1cc(S(=O)(=O)NC(=O)Nc2c(C(C)C)cccc2C(C)C)nn1C [Example 55, 3-(N-((2,6-Diisopropylphenyl)carbamoyl)sulfamoyl)-N,1-dimethyl-1H-pyrazole-5-carboxamide] | 160 to 640 | 400 to 800 | 
CCN(C)C(=O)c1cc(S(=O)(=O)NC(=O)Nc2c(C(C)C)cccc2C(C)C)nn1C [Example 56, 3-(N-((2,6-Diisopropylphenyl)carbamoyl)sulfamoyl)-N-ethyl-N,1-dimethyl-1H-pyrazole-5-carboxamide] | 640 to 2560 | 1600 to 3200 | 
CC(C)c1cccc(C(C)C)c1NC(=O)NS(=O)(=O)c1cc(C(=O)N(C)C(C)C)n(C)n1 [Example 58, 3-(N-((2,6-Diisopropylphenyl)carbamoyl)sulfamoyl)-N-isopropyl-N,1-dimethyl-1H-pyrazole-5-carboxamide] | 160 to 640 | 400 to 800 | 
CC(C)N(C)C(=O)c1cc(S(=O)(=O)NC(=O)Nc2c3c(cc4c2CCC4)CCC3)nn1C [Example 64, 3-(N-((1,2,3,5,6,7-Hexahydro-s-indacen-4-yl)carbamoyl)sulfamoyl)-N-isopropyl-N,1-dimethyl-1H-pyrazole-5-carboxamide] | 40 to 160 | 1600 to 3200 | 
CC(C)c1cc(Cl)cc(C(C)C)c1NC(=O)NS(=O)(=O)c1cc(C(=O)N(C)CCO)n(C)n1 [Example 74, 3-(N-((4-Chloro-2,6-diisopropylphenyl)carbamoyl)sulfamoyl)-N-(2-hydroxyethyl)-N,1-dimethyl-1H-pyrazole-5-carboxamide] | 40 to 160 | 800 to 1600 | 
CN(CCO)C(=O)c1cc(S(=O)(=O)NC(=O)Nc2c3c(cc4c2CCC4)CCC3)nn1C [Example 78, 3-(N-((1,2,3,5,6,7-Hexahydro-s-indacen-4-yl)carbamoyl)sulfamoyl)-N-(2-hydroxyethyl)-N,1-dimethyl-1H-pyrazole-5-carboxamide] | 40 to 160 | < 400 | 
COCCN(CCOC)C(=O)c1cc(S(=O)(=O)NC(=O)Nc2c(-c3ccnc(OC(C)C)c3)cc(F)cc2C(C)C)nn1C [Example 79, 3-(N-((4-Fluoro-2-(2-isopropoxypyridin-4-yl)-6-isopropyl-phenyl)carbamoyl)sulfamoyl)-N,N-bis(2-methoxyethyl)-1-methyl-1H-pyrazole-5-carboxamide] | 2560 to 10000 | 3200 to 10000 | 
COc1cc(-c2ccc3c(c2NC(=O)NS(=O)(=O)c2cc(C(=O)N(C)C)n(C)n2)CCC3)ccn1 [Example 82, 3-(N-((5-(2-Methoxypyridin-4-yl)-2,3-dihydro-1H-inden-4-yl)carbamoyl)sulfamoyl)-N,N,1-trimethyl-1H-pyrazole-5-carboxamide] | < 40 | < 400 | 
CN(C)C(=O)C(C)(C)n1ccc(S(=O)(=O)NC(=O)Nc2c3c(cc4c2CCC4)CCC3)n1 [Example 83, 2-(3-(N-((1,2,3,5,6,7-Hexahydro-s-indacen-4-yl)carbamoyl)sulfamoyl)-1H-pyrazol-1-yl)-N,N,2-trimethylpropanamide] | 40 to 160 | 800 to 1600 | 
COc1cc(-c2ccc3c(c2NC(=O)NS(=O)(=O)c2ccn(C(C)(C)C(=O)N(C)C)n2)CCC3)ccn1 [Example 84] | < 40 | < 400 | 

Continued, in another order:

IC50 (NLRP3 [2]) [nM] | IC50 (NLRP3 [3]) [nM] | Structure (SMILES) | also measured
40 to 160 | 400 to 800 | COCCN(C)C(=O)c1cc(S(=O)(=O)NC(=O)Nc2c3c(cc4c2CCC4)CCC3)nn1C [Example 27, 3-(N-((1,2,3,5,6,7-Hexahydro-s-indacen-4-yl)carbamoyl)sulfamoyl)-N-(2-methoxyethyl)-N,1-dimethyl-1H-pyrazole-5-carboxamide] | CL/F [1, 4]: 21.5 mL/min/kg; Tmax [1, 4]: 0.08 h; bioavailability [1, 4]: 67%; half-life [1, 4]: 4.9 h
160 to 640 | 800 to 1600 | CN(CC#N)C(=O)c1cc(S(=O)(=O)NC(=O)Nc2c3c(cc4c2CCC4)CCC3)nn1C [Example 53, N-(Cyanomethyl)-3-(N-((1,2,3,5,6,7-hexahydro-s-indacen-4-yl)carbamoyl)sulfamoyl)-N,1-dimethyl-1H-pyrazole-5-carboxamide] | 
160 to 640 | < 400 | CC(C)c1cc(F)cc(C(C)C)c1NC(=O)NS(=O)(=O)c1cc(C(=O)N(C)C)n(C)n1 [Example 60, 3-(N-((4-Fluoro-2,6-diisopropylphenyl)carbamoyl)sulfamoyl)-N,N,1-trimethyl-1H-pyrazole-5-carboxamide] | AUC [1, 5]: 283 ng·h/mL; clearance [1, 5]: 59.2 mL/min/kg; half-life [1, 5]: 3.3 h; Vd [1, 5]: 4.08 L/kg; AUC [1, 4]: 770 ng·h/mL; CL/F [1, 4]: 110 mL/min/kg; Cmax [1, 4]: 495 ng/mL; Tmax [1, 4]: 0.17 h; bioavailability [1, 4]: 54.3%; half-life [1, 4]: 9.7 h
40 to 160 | 800 to 1600 | CCN(CC)C(=O)c1cc(S(=O)(=O)NC(=O)Nc2c3c(cc4c2CCC4)CCC3)nn1C [Example 65, N,N-Diethyl-3-(N-((1,2,3,5,6,7-hexahydro-s-indacen-4-yl)carbamoyl)sulfamoyl)-1-methyl-1H-pyrazole-5-carboxamide] | 
160 to 640 | < 400 | COCCN(CCOC)C(=O)c1cc(S(=O)(=O)NC(=O)Nc2c(-c3ccnc(OC)c3)ccc3c2CCC3)nn1C [Example 80, N,N-Bis(2-methoxyethyl)-3-(N-((5-(2-methoxypyridin-4-yl)-2,3-dihydro-1H-inden-4-yl)carbamoyl)sulfamoyl)-1-methyl-1H-pyrazole-5-carboxamide] | 
160 to 640 | 1600 to 3200 | CC(C)Oc1cc(-c2cc(F)cc(C(C)C)c2NC(=O)NS(=O)(=O)c2cc(C(=O)N(C)C)n(C)n2)ccn1 [Example 81, 3-(N-((4-Fluoro-2-(2-isopropoxypyridin-4-yl)-6-isopropyl-phenyl)carbamoyl)sulfamoyl)-N,N,1-trimethyl-1H-pyrazole-5-carboxamide] | 
